Measured values: ChEMBL document CHEMBL1138342, “Dual inhibitors of inosine monophosphate dehydrogenase and histone deacetylases for cancer treatment” (J Med Chem, 2007)
The source made the active and inactive calls. The rule behind the calls is not given here.

Tests used:
[1] = molecular target: Histone deacetylase; assay type: protein assay, Homo sapiens
[2] = system: K562; test: cells; assay type: functional, cell-based; details: Homo sapiens, K562, 72 h
[3] = molecular target: Inosine-5'-monophosphate dehydrogenase 2 (Homo sapiens, UniProt P12268); test: Inhibition of human IMPDH 2
[4] = molecular target: Inosine-5'-monophosphate dehydrogenase 1 (Homo sapiens, UniProt P20839); test: Inhibition of human IMPDH 1
[5] = system: K562; test: Differentiation of K562 cells at 0.25 uM after 5 days by […]; assay type: functional, Homo sapiens
[6] = system: K562; test: Differentiation of K562 cells at 0.50 uM after 5 days by […]; assay type: functional, Homo sapiens
[7] = system: K562; test: Differentiation of K562 cells at 0.005 uM after 5 days by […]; assay type: functional, Homo sapiens

SMILES | IC50 [1] [nM] | IC50 [2] [nM] | Ki [3] [nM] | Ki [4] [nM] | Activity [3] | Activity [4] | Activity [5] [%] | Activity [6] [%] | Activity [7] [%]
COc1c(C)c2c(c(O)c1CCC(C)CCC(=O)NO)C(=O)OC2 (stereo not given) | 20100 | 44700 | 540 | 2070 | – | – | – | – | –
COc1c(C)c2c(c(O)c1C/C=C(\C)CCC(=O)Nc1ccccc1N)C(=O)OC2 | > 100000 | 60000 | 650 | 2830 | – | – | – | – | –
O=C(CCCCCCC(=O)Nc1ccccc1)NO [VORINOSTAT] | – | – | – | – | inactive | inactive | – | 47.4 | –
COc1c(C)c2c(c(O)c1C/C=C(\C)CCC(=O)O)C(=O)OC2 [MYCOPHENOLIC ACID] | – | – | – | – | – | – | 46.4 | – | –

Second part, led by results:

IC50 [1] [nM] | IC50 [2] [nM] | Ki [3] [nM] | Ki [4] [nM] | Activity [3] | Activity [4] | SMILES | Activity [5] [%] | Activity [6] [%] | Activity [7] [%]
5000 | 4800 | 30 | 70 | – | – | COc1c(C)c2c(c(O)c1C/C=C(\C)CCC(=O)NO)C(=O)OC2 [MYCOPHENOLIC HYDROXAMIC ACID] | 75 | – | –
60 | 290 | 1700 | 5000 | – | – | COc1cc(NC(=O)CCCCCCC(=O)NO)ccc1-c1cnco1 | – | – | 87.8
14000 | 42300 | – | – | inactive | inactive | COc1c(C)c2c(c(OC)c1C/C=C(\C)CCC(=O)NO)C(=O)OC2 | – | – | –
10400 | 10800 | 1100 | 400 | – | – | COc1c(C)c2c(c(O)c1C/C=C(\C)CCCC(=O)NO)C(=O)OC2 | – | – | –
